Measured values: the Kinase Knowledgebase extract (Sharma et al. 2016)

These molecules were tested against MAPK14 (human) (UniProt Q16539) (assay: Inhibition of MAPK14 Kinase Activity).
Sequence of MAPK14 (human) (Q16539 whole entry, looked up): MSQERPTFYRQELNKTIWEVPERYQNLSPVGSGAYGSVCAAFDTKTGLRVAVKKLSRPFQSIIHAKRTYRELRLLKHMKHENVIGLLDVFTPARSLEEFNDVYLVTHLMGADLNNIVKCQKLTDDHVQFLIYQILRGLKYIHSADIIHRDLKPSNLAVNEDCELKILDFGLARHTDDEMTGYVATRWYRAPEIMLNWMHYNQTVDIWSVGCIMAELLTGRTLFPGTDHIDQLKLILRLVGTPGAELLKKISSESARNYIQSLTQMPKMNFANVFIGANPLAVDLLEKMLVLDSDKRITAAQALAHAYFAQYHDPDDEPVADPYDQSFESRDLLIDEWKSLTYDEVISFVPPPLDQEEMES

**Q.** Which results are given for `CC(C)n1c(NC[C@H](O)CO)nc(OCc2ccc(F)cc2F)c(Br)c1=O`?
**A.** IC50: 18.3 nM; Ki: 9.05 nM

**Q.** With `CNC(=O)NCCOc1nc(OCc2ccc(F)cc2F)c(Cl)c(=O)n1C(C)C` as the molecule, how does the IC50 read?
**A.** 249 nM

**Q.** And the Ki?
**A.** 123 nM

**Q.** With `CN[C@@H]1CCN(c2nc(OCc3ccc(F)cc3F)c(Br)c(=O)n2C(C)C)C1` as the molecule, how does the IC50 read?
**A.** 12.8 nM

**Q.** What about the Ki of the same molecule?
**A.** 6.37 nM

**Q.** Which results are given for `CC(=O)N[C@@H]1CCN(c2nc(OCc3ccc(F)cc3F)c(Cl)c(=O)n2C(C)C)C1`?
**A.** IC50: 578 nM; Ki: 371 nM

**Q.** What does the source list for `CC(C)n1c(N2CC[C@H](NC(=O)CO)C2)nc(OCc2ccc(F)cc2F)c(Cl)c1=O`?
**A.** IC50: 813 nM; Ki: 522 nM

**Q.** Which results are given for `CC(=O)N[C@H]1CCN(c2nc(OCc3ccc(F)cc3F)c(Cl)c(=O)n2C(C)C)C1`?
**A.** IC50: 703 nM; Ki: 451 nM

**Q.** Which IC50 does the source give for `CSc1cc(OCc2ccc(F)cc2F)c(Br)c(=O)n1C(C)C` here?
**A.** 230 nM

**Q.** What about the Ki of the same molecule?
**A.** 119 nM

**Q.** With `CC(C)n1cnc(OCc2ccc(F)cc2F)c(Br)c1=O` as the molecule, how does the IC50 read?
**A.** 53 nM

**Q.** And the Ki?
**A.** 28.3 nM

**Q.** `CC(C)n1c(-c2ccccc2)nc(OCc2ccc(F)cc2F)cc1=O` was tested. Which IC50 did it give?
**A.** 3180 nM

**Q.** What about the Ki of the same molecule?
**A.** 1690 nM

**Q.** With `CC(C)n1c(NCC(N)=O)nc(OCc2ccc(F)cc2F)c(Br)c1=O` as the molecule, how does the IC50 read?
**A.** 14.1 nM

**Q.** What about the Ki of the same molecule?
**A.** 7.03 nM

**Q.** With `CC(C)n1c(N2CCC(O)CC2)nc(OCc2ccc(F)cc2F)c(Br)c1=O` as the molecule, how does the IC50 read?
**A.** 304 nM

**Q.** And the Ki?
**A.** 166 nM

**Q.** `CC(C)n1c(N2CC[C@H](N)C2)nc(OCc2ccc(F)cc2F)c(Br)c1=O` was tested. Which IC50 did it give?
**A.** 818 nM

**Q.** What about the Ki of the same molecule?
**A.** 435 nM

**Q.** How did the IC50 turn out when `CC(C)n1c(NCCNS(C)(=O)=O)nc(OCc2ccc(F)cc2F)c(Cl)c1=O` was run?
**A.** 22.3 nM

**Q.** What about the Ki of the same molecule?
**A.** 10.3 nM

**Q.** For `Cc1nc(OCc2ccc(F)cc2F)c(Cl)c(=O)n1C(C)C`, which IC50 is on record?
**A.** 346 nM

**Q.** And the Ki?
**A.** 155 nM

**Q.** What does the source list for `CC(C)n1c(NCCN)nc(OCc2ccc(F)cc2F)c(Br)c1=O`?
**A.** IC50: 143 nM; Ki: 78.1 nM

**Q.** Which results are given for `CNC(=O)CCc1nc(OCc2ccc(F)cc2F)c(Cl)c(=O)n1C(C)C`?
**A.** IC50: 2430 nM; Ki: 1160 nM

**Q.** Which results are given for `CC(C)n1c(N2CCN(CC(N)=O)CC2)nc(OCc2ccc(F)cc2F)c(Br)c1=O`?
**A.** IC50: 251 nM; Ki: 104 nM

**Q.** How did the IC50 turn out when `CC(C)n1c(N2CC[C@@H](NC(=O)OCc3cccnc3)C2)nc(OCc2ccc(F)cc2F)c(Br)c1=O` was run?
**A.** 810 nM

**Q.** What about the Ki of the same molecule?
**A.** 476 nM

**Q.** Which results are given for `CC(C)n1c(CCC(N)=O)nc(OCc2ccc(F)cc2F)c(Cl)c1=O`?
**A.** IC50: 2040 nM; Ki: 976 nM

**Q.** With `CC(C)n1c(CCCC(=O)O)nc(OCc2ccc(F)cc2F)c(Cl)c1=O` as the molecule, how does the IC50 read?
**A.** 497 nM

**Q.** What about the Ki of the same molecule?
**A.** 247 nM

**Q.** `CC(=O)NCc1nc(OCc2ccc(F)cc2F)c(Br)c(=O)n1C(C)C` was tested. Which IC50 did it give?
**A.** 1380 nM

**Q.** What about the Ki of the same molecule?
**A.** 675 nM

**Q.** With `CC(C)n1c(OCCCC(N)=O)nc(OCc2ccc(F)cc2F)c(Cl)c1=O` as the molecule, how does the IC50 read?
**A.** 155 nM

**Q.** And the Ki?
**A.** 73.4 nM

**Q.** What does the source list for `CC(C)n1c(NCCC(C)(C)C)nc(OCc2ccc(F)cc2F)c(Br)c1=O`?
**A.** IC50: 131 nM; Ki: 66.1 nM

**Q.** Which IC50 does the source give for `CC(C)n1c(N2CC[C@@H](NC(=O)OCc3ccccn3)C2)nc(OCc2ccc(F)cc2F)c(Br)c1=O` here?
**A.** 1220 nM

**Q.** And the Ki?
**A.** 756 nM
